Measured values reported in PubChem BioAssay AID743317 (Broad Institute, 2014).
Results filed as inconclusive are left out. Calls of active or inactive are those of the source.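 The calls were made as follows: active = fitted curve reaches 40% activation at or below the top valid dose, and every replicate test is called active; inconclusive = replicate tests disagree, some active and some inactive; inactive = all replicate tests inactive, including activity in the wrong direction.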

These molecules were tested against Endoplasmic reticulum aminopeptidase 1 (Homo sapiens) (UniProt Q9NZ08) (assay: ERAP1 aminopeptidase activity change, dose response, biochemical, fluorescence, cherry-pick (AID 743317)). Conditions: ERAP1 enzyme, Leu-AMC fluorescence, 60 min.
Endoplasmic reticulum aminopeptidase 1 (Homo sapiens), sequence (Q9NZ08 whole entry, looked up): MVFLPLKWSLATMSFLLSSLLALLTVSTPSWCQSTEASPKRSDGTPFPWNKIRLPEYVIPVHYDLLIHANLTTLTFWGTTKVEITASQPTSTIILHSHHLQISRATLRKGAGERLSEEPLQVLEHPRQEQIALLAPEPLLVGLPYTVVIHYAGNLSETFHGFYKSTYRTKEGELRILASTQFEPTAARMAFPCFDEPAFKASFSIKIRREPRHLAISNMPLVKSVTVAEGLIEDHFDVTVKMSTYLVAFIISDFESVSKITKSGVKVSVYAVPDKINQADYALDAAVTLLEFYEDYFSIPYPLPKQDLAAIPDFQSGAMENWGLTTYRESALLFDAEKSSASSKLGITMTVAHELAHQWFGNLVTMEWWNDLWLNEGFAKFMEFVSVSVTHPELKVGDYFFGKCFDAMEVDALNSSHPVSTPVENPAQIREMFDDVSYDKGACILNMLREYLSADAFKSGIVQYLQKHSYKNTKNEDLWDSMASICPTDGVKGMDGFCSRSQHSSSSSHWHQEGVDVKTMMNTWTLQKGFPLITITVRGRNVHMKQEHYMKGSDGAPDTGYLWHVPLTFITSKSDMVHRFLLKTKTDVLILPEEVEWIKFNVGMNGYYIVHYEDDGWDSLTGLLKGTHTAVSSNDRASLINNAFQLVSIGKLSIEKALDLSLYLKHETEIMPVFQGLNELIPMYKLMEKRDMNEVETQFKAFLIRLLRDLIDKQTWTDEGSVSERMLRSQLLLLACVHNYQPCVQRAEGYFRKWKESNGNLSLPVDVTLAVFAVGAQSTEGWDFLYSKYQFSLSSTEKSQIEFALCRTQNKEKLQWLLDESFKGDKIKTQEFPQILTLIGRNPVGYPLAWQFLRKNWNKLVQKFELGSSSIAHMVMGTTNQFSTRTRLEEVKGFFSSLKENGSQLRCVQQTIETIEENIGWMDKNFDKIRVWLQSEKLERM

Q: Which AC40 does the source give for `C[C@H](CO)N1C[C@H](C)[C@H](CN(C)Cc2ccncc2)Oc2c(NC(=O)Nc3ccc(C(F)(F)F)cc3)cccc2C1=O` here?
A: 704 nM

Q: With `C[C@@H]1CCCCO[C@@H](CN(C)CC2CC2)[C@@H](C)CN([C@H](C)CO)C(=O)c2cc(NS(=O)(=O)c3cccs3)ccc2O1` as the molecule, how does the AC40 read?
A: < 80 nM

Q: How did the AC40 turn out when `C[C@@H]1CCCCO[C@@H](CN(C)Cc2ccc3c(c2)OCO3)[C@@H](C)CN([C@@H](C)CO)C(=O)c2cc(NS(=O)(=O)c3ccccc3)ccc2O1` was run?
A: 563 nM

Q: How did the AC40 turn out when `Cc1ccccc1-c1ccc2c(c1)O[C@@H](CN(C)Cc1ccc(C(=O)O)cc1)[C@@H](C)CN([C@@H](C)CO)S2(=O)=O` was run?
A: 1240 nM

Q: `C[C@@H]1CCCCO[C@H](CN(C)Cc2ccc(C(=O)O)cc2)[C@@H](C)CN([C@H](C)CO)C(=O)c2cc(NC(=O)Nc3ccc(C(F)(F)F)cc3)ccc2O1` was tested. Which AC40 did it give?
A: < 160 nM

Q: Which AC40 does the source give for `C[C@@H]1CCCCO[C@H](CN(C)Cc2ccc(C(=O)O)cc2)[C@H](C)CN([C@@H](C)CO)C(=O)c2cc(NC(=O)Nc3ccc(C(F)(F)F)cc3)ccc2O1` here?
A: 91.9 nM

Q: For `Cc1c(O)ccc2c(CN3CCN(Cc4ccccc4)CC3)cc(=O)oc12`, which AC40 is on record?
A: 4100 nM

Q: For `C[C@@H]1CCCCO[C@@H](CN(C)C)[C@@H](C)CN([C@@H](C)CO)C(=O)c2cc(NS(=O)(=O)c3ccc(F)cc3)ccc2O1`, which AC40 is on record?
A: 454 nM

Q: For `C[C@@H]1CCCCO[C@@H](CN(C)CC2CCCCC2)[C@H](C)CN([C@@H](C)CO)C(=O)c2cc(NC(=O)Nc3ccccc3)ccc2O1`, which AC40 is on record?
A: 357 nM

Q: `C[C@@H]1CCCCO[C@@H](CN(C)Cc2ccc3c(c2)OCO3)[C@@H](C)CN([C@H](C)CO)C(=O)c2cc(NS(=O)(=O)c3cccs3)ccc2O1` was tested. Which AC40 did it give?
A: < 80 nM

Q: For `COc1cccc(CN(C)Cc2cc(=O)oc3cc(O)c(Cl)cc23)c1`, which AC40 is on record?
A: 2900 nM

Q: Which AC40 does the source give for `CCCN(C)C[C@@H]1OCCCC[C@@H](C)Oc2ccc(NS(=O)(=O)c3cccs3)cc2C(=O)N([C@H](C)CO)C[C@@H]1C` here?
A: 107 nM

Q: Which AC40 does the source give for `COc1ccc(CN(C)C[C@@H]2OCCCC[C@@H](C)Oc3ccc(NS(=O)(=O)c4cccs4)cc3C(=O)N([C@H](C)CO)C[C@@H]2C)cc1` here?
A: 161 nM

Q: `C[C@@H]1CCCCO[C@H](CN(C)C)[C@H](C)CN([C@H](C)CO)C(=O)c2cc(NS(=O)(=O)c3ccc(Cl)cc3)ccc2O1` was tested. Which AC40 did it give?
A: 548 nM

Q: How did the AC40 turn out when `O=C(C[C@H]1CC[C@H]2[C@@H](COC[C@@H](O)CN2C(=O)Nc2cccc(Cl)c2)O1)N1CCCCC1` was run?
A: 211 nM

Q: Which AC40 does the source give for `CCCN(C)C[C@@H]1OCCCC[C@@H](C)Oc2ccc(NS(=O)(=O)c3ccc(C)cc3)cc2C(=O)N([C@@H](C)CO)C[C@@H]1C` here?
A: 133 nM

Q: `C[C@@H]1CN([C@H](C)CO)C(=O)c2cccc(NC(=O)Nc3ccccc3)c2O[C@@H]1CN(C)Cc1ccc(C(=O)O)cc1` was tested. Which AC40 did it give?
A: 3610 nM

Q: How did the AC40 turn out when `COc1ccc(NC(=O)Nc2ccc3c(c2)C(=O)N([C@H](C)CO)C[C@@H](C)[C@@H](CN(C)Cc2ccc(C(=O)O)cc2)OCCCC[C@@H](C)O3)cc1` was run?
A: 652 nM

Q: For `Cc1noc(C)c1S(=O)(=O)Nc1ccc2c(c1)C(=O)N([C@H](C)CO)C[C@@H](C)[C@@H](CN(C)CC1CCCCC1)OCCCC[C@@H](C)O2`, which AC40 is on record?
A: 5460 nM

Q: How did the AC40 turn out when `CCCN(C)C[C@@H]1OCCCC[C@@H](C)Oc2ccc(NS(=O)(=O)c3ccc(OC)cc3)cc2C(=O)N([C@H](C)CO)C[C@@H]1C` was run?
A: 812 nM

Q: For `CCCN(C)C[C@@H]1OCCCC[C@H](C)Oc2ccc(NC(=O)Nc3ccc(F)cc3)cc2C(=O)N([C@H](C)CO)C[C@@H]1C`, which AC40 is on record?
A: 4370 nM

Q: How did the AC40 turn out when `Cc1ccc2nc3c(cc(C(=O)NCc4ccccc4)c(=N)n3CCCn3ccnc3)c(=O)n2c1` was run?
A: 8840 nM

Q: How did the AC40 turn out when `C[C@@H]1CCCCO[C@H](CN(C)Cc2ccccc2)[C@H](C)CN([C@@H](C)CO)C(=O)c2cc(NS(=O)(=O)c3cccs3)ccc2O1` was run?
A: 607 nM

Q: Which AC40 does the source give for `C[C@@H]1CCCCO[C@H](CN(C)Cc2ccccc2)[C@H](C)CN([C@H](C)CO)C(=O)c2cc(NS(=O)(=O)c3ccccc3)ccc2O1` here?
A: 358 nM

Q: How did the AC40 turn out when `COc1ccc(CN(C)C[C@@H]2OCCCC[C@@H](C)Oc3ccc(NS(=O)(=O)c4cccs4)cc3C(=O)N([C@@H](C)CO)C[C@H]2C)cc1` was run?
A: 577 nM

Q: Which AC40 does the source give for `C[C@H]1CN([C@@H](C)CO)C(=O)c2cccc(NC(=O)Nc3ccc4c(c3)OCO4)c2O[C@@H]1CN(C)CC1CC1` here?
A: 770 nM

Q: For `Cc1noc(C)c1NC(=O)N(C)C[C@@H]1Oc2c(NC(=O)Nc3ccccc3)cccc2C(=O)N([C@H](C)CO)C[C@@H]1C`, which AC40 is on record?
A: 6450 nM

Q: Which AC40 does the source give for `CNC[C@H]1OCCCC[C@@H](C)Oc2ccc(NS(=O)(=O)c3ccc(C)cc3)cc2C(=O)N([C@@H](C)CO)C[C@H]1C` here?
A: 3420 nM

Q: With `C[C@H](CO)N1C[C@H](C)[C@H](CN(C)CC2CCCCC2)Oc2c(NC(=O)Nc3ccc(C(F)(F)F)cc3)cccc2C1=O` as the molecule, how does the AC40 read?
A: 565 nM

Q: How did the AC40 turn out when `Cc1noc(C)c1S(=O)(=O)Nc1ccc2c(c1)C(=O)N([C@H](C)CO)C[C@H](C)[C@H](CN(C)Cc1ccc3c(c1)OCO3)OCCCC[C@@H](C)O2` was run?
A: 2350 nM

Q: For `COc1ccc(CN(C)C[C@@H]2OCCCC[C@H](C)Oc3ccc(NS(=O)(=O)c4cccs4)cc3C(=O)N([C@H](C)CO)C[C@@H]2C)cc1`, which AC40 is on record?
A: 7890 nM

Q: Which AC40 does the source give for `C[C@@H]1CN([C@H](C)CO)C(=O)c2cc(NC(=O)Nc3ccc(F)cc3)ccc2O[C@H]1CN(C)Cc1ccc(C(=O)O)cc1` here?
A: 484 nM

Q: With `Cc1cc(=O)oc2cc(OCC(=O)N3CCN(C(C)c4ccccc4)CC3)c(Cl)cc12` (configuration not stated) as the molecule, how does the AC40 read?
A: 6220 nM

Same assay, conditions: ERAP1 enzyme, Leu-AMC fluorescence, 60 min; at 5.6 µM (top of the series)

Q: With `COC(=O)Cc1c(C)c2ccc(O)c(CNCc3ccc(OC)c(OC)c3)c2oc1=O` as the molecule, how does the activity increase (activation) read?
A: -74.1% (inactive)

Q: With `CCCc1cc(=O)oc2c(CN3CCN(C)CC3)c(O)ccc12` as the molecule, how does the activity increase (activation) read?
A: -44.3% (inactive)

Same assay, conditions: ERAP1 enzyme, Leu-AMC fluorescence, 60 min; at 10 µM (top of the series)

Q: For `CCN1[C@H](C(=O)Nc2nccs2)[C@@H](CO)[C@@H]2Cn3c(ccc(/C=C/c4ccccc4)c3=O)[C@@H]21`, which activity increase (activation) is on record?
A: -13.4% (inactive)

Same assay, conditions: ERAP1 enzyme, Leu-AMC fluorescence, 60 min; at 11 µM (top of the series)

Q: How did the activity increase (activation) turn out when `Cc1c(C)c2ccc(O)c(CN3CCN(C)CC3)c2oc1=O` was run?
A: -52.8% (inactive)

Q: For `N#Cc1c(N2CCNCC2)nc(-c2ccco2)c2c1CCCC2`, which activity increase (activation) is on record?
A: -51.7% (inactive)

Q: Which activity increase (activation) does the source give for `CN(C)Cc1c(O)ccc2cc(-c3nc4ccccc4n3C)c(=O)oc12` here?
A: -107% (inactive)

Q: `COc1ccc(-c2cc3ccc(O)cc3oc2=O)cc1` was tested. Which activity increase (activation) did it give?
A: -75.7% (inactive)

Q: With `O=c1ccc2cc(O)c(O)cc2o1` as the molecule, how does the activity increase (activation) read?
A: -53.9% (inactive)

Q: For `Cc1cc(=O)oc2cc(NS(=O)(=O)c3ccc(F)cc3)ccc12`, which activity increase (activation) is on record?
A: -52% (inactive)

Q: `CCCCCCC[C@H](N)[C@H](O)C(=O)N(C)[C@@H](CCS(C)=O)C(=O)N[C@@H](Cc1ccc(O)cc1)C(=O)N[C@@H](Cc1ccc(O)cc1)C(=O)O` (some centres not stated) was tested. Which activity increase (activation) did it give?
A: -57.4% (inactive)

Q: With `CCc1cc(=O)oc2c(CNCc3c(F)cccc3Cl)c(O)ccc12` as the molecule, how does the activity increase (activation) read?
A: -60.7% (inactive)

Q: `O=c1oc2c(CN3CCN(CCO)CC3)c(O)ccc2cc1-c1ccccn1` was tested. Which activity increase (activation) did it give?
A: -80.1% (inactive)

Q: With `Cc1cc(=O)oc2c(CN3CCN(CCO)CC3)c(O)ccc12` as the molecule, how does the activity increase (activation) read?
A: -61.9% (inactive)

Q: `NC(=NCCc1c[nH]c2ccccc12)NS(=O)(=O)c1cc(F)ccc1F` was tested. Which activity increase (activation) did it give?
A: -59.5% (inactive)

Q: `Cc1cc(=O)oc2c(CN3CCN(C)CC3)c(O)c(Cl)cc12` was tested. Which activity increase (activation) did it give?
A: -69.3% (inactive)

Q: `COc1cc2ccc(=O)oc2cc1O` was tested. Which activity increase (activation) did it give?
A: -97.7% (inactive)

Q: For `COCCCn1c(C(=O)N2CCOCC2)cc2c(=O)n3ccccc3nc21`, which activity increase (activation) is on record?
A: -46.9% (inactive)

Q: With `CCN(CCCl)c1cc(CN(C)C)cc(NC(=O)c2ccc(C(=O)Nc3cc(CN(C)C)cc(N(CC)CCCl)c3)cc2)c1` as the molecule, how does the activity increase (activation) read?
A: -76% (inactive)

Q: How did the activity increase (activation) turn out when `Cc1c(-c2ccccc2)c(=O)oc2cc(O)ccc12` was run?
A: -87.3% (inactive)
